Patent US4200575A, “7[(2-Thiazolyl)-2-(oxoimino)acetamido]cephalosporin derivatives” (Takeda Chemical Industries, Ltd., priority 1977, dated 1980)

Assays:
S. marcescens IFO 12648 = assay: Minimal inhibitory concentration (M.I.C.), agar dilution method; assay type: cell-based, Serratia marcescens; conditions: TSA, inoculum 10^7 /ml
From the text: (§1) (a) Determination of minimal inhibitory concentrations (Tables 1 to 8):
(§2) Procedure: agar dilution method

S. marcescens TN 24 = assay: as above; assay type: cell-based, Serratia marcescens; conditions: TSA, inoculum 10^7 /ml
From the text: as §1, §2

K. pneumoniae GN 3835 = assay: as above; assay type: cell-based, Klebsiella pneumoniae; conditions: TSA, inoculum 10^7 /ml
From the text: as §1, §2

K. pneumoniae DT = assay: as above; assay type: cell-based, Klebsiella pneumoniae; conditions: TSA, inoculum 10^7 /ml
From the text: as §1, §2

E. coli 0-111 = assay: as above; assay type: cell-based, Escherichia coli; conditions: TSA, inoculum 10^7 /ml
In short: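 MIC against E. coli O-111 was determined by agar dilution.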

P. vulgaris GN 4413 = assay: as above; assay type: cell-based, Proteus vulgaris; conditions: TSA, inoculum 10^7 /ml
From the text: as §1, §2

P. vulgaris IFO 3988 = assay: as above; assay type: cell-based, Proteus vulgaris; conditions: TSA, inoculum 10^7 /ml
From the text: as §1, §2

E. coli T-7 = assay: as above; assay type: cell-based, Escherichia coli; conditions: TSA, inoculum 10^7 /ml
From the text: as §1, §2

E. coli NIHJ JC-2 = assay: as above; assay type: cell-based, Escherichia coli; conditions: TSA, inoculum 10^7 /ml
From the text: as §1, §2

P. rettgeri TN 338 = assay: as above; assay type: cell-based, Proteus rettgeri; conditions: TSA, inoculum 10^7 /ml
From the text: as §1, §2

P. rettgeri GN4733 = assay: as above; assay type: cell-based, Proteus rettgeri; conditions: TSA, inoculum 10^7 /ml
From the text: as §1, §2

P. morganii IFO 3168 = assay: as above; assay type: cell-based, Proteus morganii; conditions: TSA, inoculum 10^7 /ml
From the text: as §1, §2

S. aureus 1840 = assay: as above; assay type: cell-based, Staphylococcus aureus; conditions: TSA, inoculum 10^7 /ml
From the text: as §1, §2

S. aureus 209P = assay: as above; assay type: cell-based, Staphylococcus aureus; conditions: TSA, inoculum 10^7 /ml
From the text: as §1, §2

Escherichia coli 0-111 = assay: Therapeutic effects in infected mice; assay type: in vivo, Male mice ICR/SLC; conditions: Escherichia coli, 0111, sc, 168 h
Method: The preliminary therapeutic effects of some cephalosporin derivatives of this invention as determined in infected mice were as follows.
Determination of therapeutic effects in infected mice
Test animals: Male mice ICR/SLC
Each compound was administered to a group of 5 animals.
Route of infection: Intraperitoneally infected with Escherichia coli 0-111
Period of observation: 7 days.
Method of administration:
One mg of each test compound was dissolved in 100 ml of sterile physiological saline and a dilution series of the same solution was prepared. These solutions were respectively injected subcutaneously into mice immediately after infection, in a single dose of 0.2 ml each.

E. cloacae TN 1282 = assay: Minimal inhibitory concentration (M.I.C.), agar dilution method; assay type: cell-based, Enterobacter cloacae; conditions: TSA, inoculum 10^7 /ml
From the text: as §1, §2

P. mirabilis GN 4359 = assay: as above; assay type: cell-based, Proteus mirabilis; conditions: TSA, inoculum 10^7 /ml
From the text: as §1, §2

C. freundii GN 1706 = assay: as above; assay type: cell-based, Citrobacter freundii; conditions: TSA, inoculum 10^7 /ml
From the text: as §1, §2

C. freundii GN 99 = assay: as above; assay type: cell-based, Citrobacter freundii; conditions: TSA, inoculum 10^7 /ml
From the text: as §1, §2

| SMILES | minimal inhibitory concentration (M.I.C.) (S. marcescens IFO 12648) | minimal inhibitory concentration (M.I.C.) (S. marcescens TN 24) | minimal inhibitory concentration (M.I.C.) (K. pneumoniae GN 3835) | minimal inhibitory concentration (M.I.C.) (K. pneumoniae DT) | minimal inhibitory concentration (M.I.C.) (E. coli 0-111) | minimal inhibitory concentration (M.I.C.) (P. vulgaris GN 4413) | minimal inhibitory concentration (M.I.C.) (P. vulgaris IFO 3988) | minimal inhibitory concentration (M.I.C.) (E. coli T-7) | minimal inhibitory concentration (M.I.C.) (E. coli NIHJ JC-2) | minimal inhibitory concentration (M.I.C.) (P. rettgeri TN 338) | minimal inhibitory concentration (M.I.C.) (P. rettgeri GN4733) | minimal inhibitory concentration (M.I.C.) (P. morganii IFO 3168) | minimal inhibitory concentration (M.I.C.) (S. aureus 1840) | minimal inhibitory concentration (M.I.C.) (S. aureus 209P) | ED50 (Escherichia coli 0-111) | minimal inhibitory concentration (M.I.C.) (E. cloacae TN 1282) | minimal inhibitory concentration (M.I.C.) (P. mirabilis GN 4359) | minimal inhibitory concentration (M.I.C.) (C. freundii GN 1706) | minimal inhibitory concentration (M.I.C.) (C. freundii GN 99) |
| --- | --- | --- | --- | --- | --- | --- | --- | --- | --- | --- | --- | --- | --- | --- | --- | --- | --- | --- | --- |
| CCCCNC(=O)O/N=C(\C(=O)NC1C(=O)N2C(C(=O)O)=C(COC(N)=O)CSC12)c1csc(=N)[nH]1 (stereo not drawn) [Example II - 21, sodium 7-[2-(2-imino-4-thiazolin-4-yl)-2-butylcarbamoyloximinoacetamido]-3-carbamoyloxymethyl-3-cephem-4-carboxylate (syn-isomer)] | 6.25 | 25 | 0.39 | 0.1 | 0.05 | 50 | 0.39 | 3.13 | 0.39 | ≤ 0.012 | 0.39 | 1.56 | 3.13 | 1.56 | 0.1 mg/kg | 25 | 0.2 | 0.78 | 0.39 |
| O=C(Cc1cccs1)N[C@@H]1C(=O)N2C(C(=O)[O-])=C(C[n+]3ccccc3)CS[C@H]12 [Cephaloridine, 7-(2-thienylacetamido)-3-(1-pyridyl)methyl-3-cephem-4-carboxylic acid betaine, reference compound] | > 100 | > 100 | 12.5 | 1.56 | 1.56 | > 100 | 6.25 | > 100 | 3.13 | 1.56 | > 100 | > 100 | 0.39 | 0.05 | 2 mg/kg | > 100 | 6.25 | > 100 | 50 |
| CNC(=O)O/N=C(\C(=O)NC1C(=O)N2C(C(=O)O)=C(CSc3nnnn3C)CSC12)c1csc(=N)[nH]1 (stereo not drawn) [Example II - 4, sodium 7-[2-(2-imino-4-thiazolin-4-yl)-2-methylcarbamoyloximinoacetamido]-3-(1-methyl-1H-tetrazol-5-yl)thiomethyl-3-cephem-4-carboxylate (syn-isomer)] | 1.56 | 0.78 | 0.39 | 0.05 | 0.024 | 12.5 | 0.1 | 1.56 | 0.2 | ≤ 0.012 | 0.1 | 0.1 | 1.56 | 1.56 | 0.025 mg/kg | 1.56 | 0.1 | 0.39 | 0.1 |
| CNC(=O)O/N=C(\C(=O)NC1C(=O)N2C(C(=O)O)=C(C)CSC12)c1csc(=N)[nH]1 (stereo not shown) [Example II - 6] | 50 | 100 | 1.56 | 0.78 | 0.78 | 12.5 | 1.56 | 6.25 | 3.13 | 0.024 | 0.2 | 12.5 | 50 | 50 |  | 50 | 0.78 | 12.5 | 6.25 |
| CNC(=O)O/N=C(\C(=O)NC1C(=O)N2C(C(=O)O)=C(COC(N)=O)CSC12)c1csc(=N)[nH]1 (stereo not drawn) [Example II - 3, sodium 7-[2-(2-imino-4-thiazolin-4-yl)-2-methylcarbamoyloximinoacetamido]-3-carbamoyloxymethyl-3-cephem-4-carboxylate (syn-isomer)] | 3.13 | 6.25 | 0.1 | 0.024 | 0.024 | 50 | 0.05 | 0.39 | 0.1 | ≤ 0.012 | 0.1 | 0.78 | 3.13 | 3.13 | 0.016 mg/kg | 6.25 | 0.05 | 0.2 | 0.1 |
| CCCNC(=O)O/N=C(\C(=O)NC1C(=O)N2C(C(=O)O)=C(CSc3nnnn3C)CSC12)c1csc(=N)[nH]1 (stereo not shown) [Example II - 14] | 3.13 | 3.13 | 0.39 | 0.1 | 0.024 | 12.5 | 0.1 | 3.13 | 0.39 | ≤ 0.012 | 0.2 | 0.2 | 3.13 | 1.56 |  | 3.13 | 0.39 | 0.39 | 0.2 |
